In ChEMBL document CHEMBL1137510, “Discovery of potent T-type calcium channel blocker” (Bioorg Med Chem Lett, 2007):

Key:
Type in all cases: cell-based
HEK293 [1] = assay: Selectivity for Alpha-1B N-type calcium channel over alpha-1G T-type calcium channel expressed in HEK293 cells at 10 uM; conditions: Homo sapiens
[2] = target: Voltage-dependent T-type calcium channel subunit alpha-1G (Homo sapiens) (UniProt O43497); assay: Inhibition of T-type calcium channel Cav3.1 alpha-1G subunit expressed in HEK293 cells assessed as calcium current at 10 uM by patch-clamp assay
Chain of Voltage-dependent T-type calcium channel subunit alpha-1G (Homo sapiens) (O43497 whole entry): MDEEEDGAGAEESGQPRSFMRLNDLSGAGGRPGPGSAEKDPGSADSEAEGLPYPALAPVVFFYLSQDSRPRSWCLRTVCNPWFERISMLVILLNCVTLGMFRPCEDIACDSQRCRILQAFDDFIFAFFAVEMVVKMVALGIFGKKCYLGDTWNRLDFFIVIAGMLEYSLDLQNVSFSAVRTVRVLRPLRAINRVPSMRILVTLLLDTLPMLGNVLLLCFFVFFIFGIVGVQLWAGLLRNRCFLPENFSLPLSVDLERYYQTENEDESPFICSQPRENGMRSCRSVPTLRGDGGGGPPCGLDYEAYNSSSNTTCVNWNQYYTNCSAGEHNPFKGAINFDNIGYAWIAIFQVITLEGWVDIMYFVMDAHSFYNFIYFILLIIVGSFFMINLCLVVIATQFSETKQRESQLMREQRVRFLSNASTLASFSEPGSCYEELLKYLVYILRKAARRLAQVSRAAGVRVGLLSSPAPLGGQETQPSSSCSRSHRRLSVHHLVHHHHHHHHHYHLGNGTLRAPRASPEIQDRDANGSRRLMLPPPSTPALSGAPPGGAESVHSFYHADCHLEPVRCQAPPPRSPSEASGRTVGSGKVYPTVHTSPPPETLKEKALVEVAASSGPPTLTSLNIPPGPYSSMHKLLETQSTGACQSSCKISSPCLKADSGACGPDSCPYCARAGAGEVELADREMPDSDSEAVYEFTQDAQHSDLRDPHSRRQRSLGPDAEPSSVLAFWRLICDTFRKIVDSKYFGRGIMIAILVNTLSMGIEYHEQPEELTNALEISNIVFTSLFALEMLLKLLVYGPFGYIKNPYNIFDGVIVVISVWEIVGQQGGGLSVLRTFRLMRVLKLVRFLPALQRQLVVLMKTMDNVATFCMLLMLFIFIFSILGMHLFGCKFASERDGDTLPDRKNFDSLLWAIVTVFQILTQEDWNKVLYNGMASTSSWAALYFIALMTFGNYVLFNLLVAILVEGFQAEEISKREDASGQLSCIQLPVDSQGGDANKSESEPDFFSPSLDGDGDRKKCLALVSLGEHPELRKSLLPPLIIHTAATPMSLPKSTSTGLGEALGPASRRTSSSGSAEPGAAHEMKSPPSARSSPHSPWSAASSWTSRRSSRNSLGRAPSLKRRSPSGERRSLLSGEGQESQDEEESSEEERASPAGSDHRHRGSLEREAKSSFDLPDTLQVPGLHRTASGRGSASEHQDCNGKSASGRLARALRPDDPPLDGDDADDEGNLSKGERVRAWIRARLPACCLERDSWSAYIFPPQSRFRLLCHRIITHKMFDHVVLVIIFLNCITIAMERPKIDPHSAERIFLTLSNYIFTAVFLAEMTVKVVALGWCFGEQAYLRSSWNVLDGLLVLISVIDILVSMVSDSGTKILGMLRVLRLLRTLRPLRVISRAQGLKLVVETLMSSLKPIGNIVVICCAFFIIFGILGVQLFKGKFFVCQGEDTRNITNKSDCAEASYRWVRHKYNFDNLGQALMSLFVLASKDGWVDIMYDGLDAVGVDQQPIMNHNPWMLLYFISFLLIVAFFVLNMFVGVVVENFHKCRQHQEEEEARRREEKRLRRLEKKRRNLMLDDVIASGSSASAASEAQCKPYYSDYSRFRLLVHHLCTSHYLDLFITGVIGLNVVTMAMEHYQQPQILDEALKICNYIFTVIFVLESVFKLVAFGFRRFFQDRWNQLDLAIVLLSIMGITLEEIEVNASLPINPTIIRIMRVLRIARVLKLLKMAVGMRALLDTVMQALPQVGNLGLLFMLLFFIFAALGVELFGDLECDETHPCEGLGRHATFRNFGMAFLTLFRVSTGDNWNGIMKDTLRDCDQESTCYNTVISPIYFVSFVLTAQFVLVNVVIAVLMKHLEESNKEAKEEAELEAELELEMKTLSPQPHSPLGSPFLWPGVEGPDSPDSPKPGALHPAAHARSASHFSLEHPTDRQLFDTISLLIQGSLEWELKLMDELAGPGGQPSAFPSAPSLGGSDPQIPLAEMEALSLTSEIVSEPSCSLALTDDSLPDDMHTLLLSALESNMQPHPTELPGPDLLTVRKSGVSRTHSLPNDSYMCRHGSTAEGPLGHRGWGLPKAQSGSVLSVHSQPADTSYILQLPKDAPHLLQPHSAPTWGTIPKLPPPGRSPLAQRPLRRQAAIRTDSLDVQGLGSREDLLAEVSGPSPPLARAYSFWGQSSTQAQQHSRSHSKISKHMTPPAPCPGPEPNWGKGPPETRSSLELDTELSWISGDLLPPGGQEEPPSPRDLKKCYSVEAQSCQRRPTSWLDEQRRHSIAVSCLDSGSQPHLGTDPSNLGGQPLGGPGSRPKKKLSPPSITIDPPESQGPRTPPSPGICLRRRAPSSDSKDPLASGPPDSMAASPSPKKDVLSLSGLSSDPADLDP

[3] = target: Voltage-dependent T-type calcium channel subunit alpha-1G (Homo sapiens) (UniProt O43497); assay: Inhibition of T-type calcium channel Cav3.1 alpha-1G subunit expressed in HEK293 cells assessed as calcium current at 10 uM by high throughput screening
[4] = target: Voltage-dependent N-type calcium channel subunit alpha-1B (Homo sapiens) (UniProt Q00975); assay: Inhibition of N-type calcium channel […] alpha-1B subunit expressed in HEK293 cells assessed as calcium current at 10 uM by patch-clamp assay
Chain of Voltage-dependent N-type calcium channel subunit alpha-1B (Homo sapiens) (Q00975 whole entry, looked up): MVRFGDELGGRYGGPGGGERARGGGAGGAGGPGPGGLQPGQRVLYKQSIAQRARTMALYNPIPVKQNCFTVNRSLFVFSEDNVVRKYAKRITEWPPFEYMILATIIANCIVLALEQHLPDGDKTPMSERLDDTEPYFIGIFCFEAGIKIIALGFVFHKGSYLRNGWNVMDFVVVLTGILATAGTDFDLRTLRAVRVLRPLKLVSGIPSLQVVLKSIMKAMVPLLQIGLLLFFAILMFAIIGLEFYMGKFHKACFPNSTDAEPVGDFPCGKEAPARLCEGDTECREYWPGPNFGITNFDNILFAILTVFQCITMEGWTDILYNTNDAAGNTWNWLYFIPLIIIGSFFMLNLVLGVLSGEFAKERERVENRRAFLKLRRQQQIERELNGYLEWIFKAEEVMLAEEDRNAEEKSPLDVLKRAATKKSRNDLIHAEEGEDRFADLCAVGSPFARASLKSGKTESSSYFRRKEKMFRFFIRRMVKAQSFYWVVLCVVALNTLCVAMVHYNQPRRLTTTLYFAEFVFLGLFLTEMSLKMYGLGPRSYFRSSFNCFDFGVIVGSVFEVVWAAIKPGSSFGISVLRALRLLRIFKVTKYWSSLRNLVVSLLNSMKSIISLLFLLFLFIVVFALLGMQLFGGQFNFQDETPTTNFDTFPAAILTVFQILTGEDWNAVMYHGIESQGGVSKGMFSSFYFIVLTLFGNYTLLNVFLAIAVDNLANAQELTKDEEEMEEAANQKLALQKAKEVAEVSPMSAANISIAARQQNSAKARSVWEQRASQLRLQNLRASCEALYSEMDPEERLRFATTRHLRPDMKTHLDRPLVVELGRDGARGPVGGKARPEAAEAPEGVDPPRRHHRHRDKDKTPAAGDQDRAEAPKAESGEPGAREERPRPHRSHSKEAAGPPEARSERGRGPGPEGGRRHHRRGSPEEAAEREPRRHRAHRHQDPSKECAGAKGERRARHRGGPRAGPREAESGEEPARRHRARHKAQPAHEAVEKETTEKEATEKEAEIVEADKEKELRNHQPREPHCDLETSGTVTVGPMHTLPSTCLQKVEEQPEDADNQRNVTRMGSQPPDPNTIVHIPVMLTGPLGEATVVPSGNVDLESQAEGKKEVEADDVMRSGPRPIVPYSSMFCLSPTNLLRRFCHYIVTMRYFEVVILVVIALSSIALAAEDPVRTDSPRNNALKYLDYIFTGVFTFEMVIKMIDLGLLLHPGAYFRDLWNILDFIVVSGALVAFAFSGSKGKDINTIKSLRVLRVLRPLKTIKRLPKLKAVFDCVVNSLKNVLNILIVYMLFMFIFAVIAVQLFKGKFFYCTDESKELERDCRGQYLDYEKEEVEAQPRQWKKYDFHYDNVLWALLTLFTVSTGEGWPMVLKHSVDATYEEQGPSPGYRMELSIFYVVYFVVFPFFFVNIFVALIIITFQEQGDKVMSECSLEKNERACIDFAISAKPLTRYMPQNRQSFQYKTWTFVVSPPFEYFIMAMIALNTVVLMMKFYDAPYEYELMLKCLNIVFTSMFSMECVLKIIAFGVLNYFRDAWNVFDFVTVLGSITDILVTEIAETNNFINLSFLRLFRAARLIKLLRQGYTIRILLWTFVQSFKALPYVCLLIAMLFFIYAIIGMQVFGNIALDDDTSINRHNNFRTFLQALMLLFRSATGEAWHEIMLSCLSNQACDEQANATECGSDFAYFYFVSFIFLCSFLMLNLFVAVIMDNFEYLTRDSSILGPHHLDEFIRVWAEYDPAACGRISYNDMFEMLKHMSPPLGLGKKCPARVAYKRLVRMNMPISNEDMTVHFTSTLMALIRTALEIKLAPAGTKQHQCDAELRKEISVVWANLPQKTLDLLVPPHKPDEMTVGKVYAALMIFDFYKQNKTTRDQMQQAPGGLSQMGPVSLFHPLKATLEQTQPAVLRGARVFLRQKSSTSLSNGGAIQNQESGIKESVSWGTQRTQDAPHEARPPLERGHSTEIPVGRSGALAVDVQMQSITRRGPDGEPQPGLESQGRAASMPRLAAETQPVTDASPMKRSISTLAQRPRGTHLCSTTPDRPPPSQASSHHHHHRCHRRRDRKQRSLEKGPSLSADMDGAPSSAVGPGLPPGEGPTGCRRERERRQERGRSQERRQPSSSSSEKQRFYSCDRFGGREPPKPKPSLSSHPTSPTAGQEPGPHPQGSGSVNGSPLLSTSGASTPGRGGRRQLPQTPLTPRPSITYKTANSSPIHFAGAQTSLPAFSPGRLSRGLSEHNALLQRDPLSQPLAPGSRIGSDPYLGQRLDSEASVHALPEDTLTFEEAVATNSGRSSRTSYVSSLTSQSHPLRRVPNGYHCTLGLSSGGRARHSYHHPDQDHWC

HEK293 [5] = assay: Selectivity for alpha-1B N-type calcium channel over alpha1G T-type calcium channel expressed in HEK293 cells; conditions: Homo sapiens

Row | Compound | inhibition [2] [%] | inhibition [3] [%] | inhibition [4] [%] | Selectivity ratio (HEK293 [1]) | Ratio IC50 (HEK293 [5])
1 | O=C(CC1c2ccccc2N=C(N2CCCCC2)N1c1ccccc1)NCc1ccccc1 (stereo not drawn) | – | – | 28.1 | 3.2 | –
2 | COCC(=O)O[C@]1(CCN(C)CCCc2nc3ccccc3[nH]2)CCc2cc(F)ccc2[C@@H]1C(C)C | – | 77.6 | – | – | –
3 | COC(=O)CC1c2ccccc2N=C(NCCCCCN)N1c1ccc(-c2ccccc2)cc1 (stereo not drawn) | – | – | – | > 100 | –

The next lines start with results.

Row | inhibition [2] [%] | inhibition [3] [%] | inhibition [4] [%] | Compound | Selectivity ratio (HEK293 [1]) | Ratio IC50 (HEK293 [5])
4 | 90.1 | 57.9 | 24.4 | COC(=O)CC1c2ccccc2N=C(N(C)CCCCCN(C)C)N1c1ccc(-c2ccccc2)cc1 (stereo not drawn) | 3.7 | –
5 | 98 | 42.9 | 70.6 | CN(C)CCCCCN(C)C1=Nc2ccccc2C(CC(=O)NCc2ccccc2)N1c1ccc(-c2ccccc2)cc1 (stereo not drawn) | 1.4 | 120
